Assay results taken from patent publication US9777005B2 (Takeda Pharmaceutical Company Limited, priority 2012, dated 2017).
Structures can show the parent of a compound that is named as a salt.

Target: T1, human M1 receptor (hCHRM1) (Homo sapiens, UniProt P11229)
T1 construct: expressed in transfected cells; host or cells: CHO-K1
T1 sequence (P11229 1-460): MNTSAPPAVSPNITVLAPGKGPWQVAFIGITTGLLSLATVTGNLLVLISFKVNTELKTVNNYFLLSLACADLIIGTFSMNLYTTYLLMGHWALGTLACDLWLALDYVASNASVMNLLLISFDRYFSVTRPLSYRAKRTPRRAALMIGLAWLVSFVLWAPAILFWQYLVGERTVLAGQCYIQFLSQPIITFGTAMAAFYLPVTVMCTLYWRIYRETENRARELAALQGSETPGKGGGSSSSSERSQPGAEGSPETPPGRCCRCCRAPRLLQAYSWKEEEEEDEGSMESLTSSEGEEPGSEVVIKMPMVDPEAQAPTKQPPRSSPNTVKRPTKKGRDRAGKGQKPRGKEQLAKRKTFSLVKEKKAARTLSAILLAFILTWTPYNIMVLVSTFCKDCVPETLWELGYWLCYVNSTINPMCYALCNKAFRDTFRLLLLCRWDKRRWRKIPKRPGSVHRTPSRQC
Assay: Measurement of M1 receptor positive allosteric modulator (M1PAM) activity, calcium fluorescence (FLIPRtetra) in CHO-K1 cells in the presence of acetylcholine at EC20
Format: cell-based
Conditions: in the presence of acetylcholine at EC20 (final 0.6 nM), CHO-K1 cells expressing hCHRM1; for EC50: inflection point of M1PAM activity, read-out: IP value; for activity (%) at 10 μM: test compound 10 μM
Procedure: Measurement of M1 Receptor Positive Allosteric Modulator (M1PAM) Activity
The activity of a test compound in the presence of acetylcholine at EC20 concentration (final concentration 0.6 nM), which affords an action corresponding to 20% of the maximum activity, was measured as PAM activity. The method is as follows. CHO-K1 cells forcibly expressing a human M1 receptor (hCHRM1) were plated on a 384-well black clear bottom plate (BD Falcon) at 5,000 cells/well, and cultured in an incubator at 37° C., 5% CO2 for 1 day. The medium in the cell plate was removed, and assay buffer A (Recording medium (DOJINDO LABORATORIES), 0.1% BSA (Wako Pure Chemical Industries, Ltd.), 2.5 μg/mL Fluo-4 AM (DOJINDO LABORATORIES), 0.08% Pluronic F127 (DOJINDO LABORATORIES), 1.25 mM probenecid (DOJINDO LABORATORIES)) containing a calcium indicator was added at 30 μL/well. The cells were left standing in the incubator at 37° C., 5% CO2 for 30 min, and further left standing at room temperature for 30 min. A test compound prepared by diluting with assay buffer B (HBSS (Invitrogen), 20 mM HEPES (Invitrogen), 0.1% BSA) containing 2.4 nM acetylcholine was added at 10 μL/well, and the fluorescence was measured by FLIPRtetra (Molecular Devices) for 1 min every 1 second. With the definition that the amount of change in the fluorescence on addition of acetylcholine (final concentration 1 μM) is 100% and that on addition of DMSO instead of a test compound is 0%, the activity (%) of the test compound and the inflection point in the concentration-dependent curve of the test compound were calculated as IP values.

Row | Structure (SMILES) | EC50 | activity (%) at 10 μM | activity (%) at 10 μM (hydrochloride)
1 | O=C1c2c(cccc2O[C@@H]2CCOC[C@H]2O)CN1Cc1ccc(Br)cc1 (single isomer, unassigned) [Example 268, 1,5-anhydro-3-O-(2-(4-bromobenzyl)-3-oxo-2,3-dihydro-1H-isoindol-4-yl)-2-deoxy-threo-pentitol] | 39 nM | 103% | 
2 | O=C1c2c(cccc2O[C@@H]2COCC[C@H]2O)CN1Cc1ccc(Br)cc1 (single isomer, unassigned) [Example 271, 1,5-anhydro-2-O-(2-(4-bromobenzyl)-3-oxo-2,3-dihydro-1H-isoindol-4-yl)-4-deoxy-threo-pentitol] | 130 nM | 97% | 
3 | CCC(O)COc1nccc2c1C(=O)N(Cc1ccc(-c3cn(C)nc3C)cc1)C2 (single isomer, unassigned) [Example 276, 2-(4-(1,3-dimethyl-1H-pyrazol-4-yl)benzyl)-4-(2-hydroxybutoxy)-1,2-dihydro-3H-pyrrolo[3,4-c]pyridin-3-one] | 3.6 nM | 99% | 
4 | CCC(O)COc1nccc2c1C(=O)N(Cc1ccc(-c3cn(C)nc3C)cc1)C2 (single isomer, unassigned) [Example 277, 2-(4-(1,3-dimethyl-1H-pyrazol-4-yl)benzyl)-4-(2-hydroxybutoxy)-1,2-dihydro-3H-pyrrolo[3,4-c]pyridin-3-one] | 42 nM | 96% | 
5 | O=C1c2c(cccc2O[C@@H]2COCC[C@H]2O)CN1Cc1ccc(Cl)cc1 (single isomer, unassigned) [Example 295, 1,5-anhydro-2-O-(2-(4-chlorobenzyl)-3-oxo-2,3-dihydro-1H-isoindol-4-yl)-4-deoxy-threo-pentitol] | 150 nM | 100% | 
6 | O=C1c2c(cccc2O[C@@H]2CCOC[C@H]2O)CN1Cc1ccc(F)cc1F (single isomer, unassigned) [Example 299, 1,5-anhydro-2-deoxy-3-O-(2-(2,4-difluorobenzyl)-3-oxo-2,3-dihydro-1H-isoindol-4-yl)-threo-pentitol] | 18 nM | 91% | 
7 | O=C1c2c(cccc2O[C@@H]2COCC[C@H]2O)CN1Cc1ccc(F)cc1F (single isomer, unassigned) [Example 301, 1,5-anhydro-2-deoxy-4-O-(2-(2,4-difluorobenzyl)-3-oxo-2,3-dihydro-1H-isoindol-4-yl)-threo-pentitol] | 120 nM | 89% | 
8 | O=C1c2c(ccnc2O[C@@H]2CCCC[C@H]2O)CN1Cc1c(F)cc(F)cc1F (single isomer, unassigned) [Example 315, 4-((trans-2-hydroxycyclohexyl)oxy)-2-(2,4,6-trifluorobenzyl)-1,2-dihydro-3H-pyrrolo[3,4-c]pyridin-3-one] | 6.6 nM | 101% | 
9 | O=C1c2c(cccc2O[C@@H]2CCOC[C@H]2O)CN1Cc1c(F)cc(F)cc1F (single isomer, unassigned) [Example 318, 1,5-anhydro-2-deoxy-3-O-(3-oxo-2-(2,4,6-trifluorobenzyl)-2,3-dihydro-1H-isoindol-4-yl)-threo-pentitol] | 26 nM | 99% | 
10 | O=C1c2c(ccnc2O[C@@H]2CCCC[C@H]2O)CN1Cc1cc(F)ccc1F (single isomer, unassigned) [Example 319, 2-(2,5-difluorobenzyl)-4-((trans-2-hydroxycyclohexyl)oxy)-1,2-dihydro-3H-pyrrolo[3,4-c]pyridin-3-one] | 9.1 nM | 104% | 

The next lines start with the values.

Row | EC50 | activity (%) at 10 μM | activity (%) at 10 μM (hydrochloride) | Structure (SMILES)
11 | 48 nM | 106% |  | Cc1nn(C)cc1-c1ccc(CN2Cc3ccnc(O[C@@H]4CCC[C@H]4O)c3C2=O)cc1 (single isomer, unassigned) [Example 255, 2-(4-(1,3-dimethyl-1H-pyrazol-4-yl)benzyl)-4-((trans-2-hydroxycyclopentyl)oxy)-1,2-dihydro-3H-pyrrolo[3,4-c]pyridin-3-one]
12 | 4 nM | 101% |  | Cc1nn(C)cc1-c1ccc(CN2Cc3ccnc(O[C@@H]4CCC[C@H]4O)c3C2=O)cc1 (single isomer, unassigned) [Example 256, 2-(4-(1,3-dimethyl-1H-pyrazol-4-yl)benzyl)-4-((trans-2-hydroxycyclopentyl)oxy)-1,2-dihydro-3H-pyrrolo[3,4-c]pyridin-3-one]
13 | 5.7 nM |  | 107% | Cc1cc(-c2ccc(CN3Cc4ccnc(O[C@@H]5CCC[C@H]5O)c4C3=O)cc2)ccn1 (single isomer, unassigned) [Example 258, 4-((trans-2-hydroxycyclopentyl)oxy)-2-(4-(2-methylpyridin-4-yl)benzyl)-1,2-dihydro-3H-pyrrolo[3,4-c]pyridin-3-one hydrochloride]
14 | 85 nM |  | 109% | Cc1cc(-c2ccc(CN3Cc4ccnc(O[C@@H]5CCC[C@H]5O)c4C3=O)cc2)ccn1 (single isomer, unassigned) [Example 259, 4-((trans-2-hydroxycyclopentyl)oxy)-2-(4-(2-methylpyridin-4-yl)benzyl)-1,2-dihydro-3H-pyrrolo[3,4-c]pyridin-3-one hydrochloride]
15 | 12 nM | 102% |  | CCC(CO)Oc1nccc2c1C(=O)N(Cc1ccc(-c3cn(C)nc3C)cc1)C2 (single isomer, unassigned) [Example 274, 2-(4-(1,3-dimethyl-1H-pyrazol-4-yl)benzyl)-4-((l-hydroxybutan-2-yl)oxy)-1,2-dihydro-3H-pyrrolo[3,4-c]pyridin-3-one]
16 | 76 nM | 104% |  | CCC(CO)Oc1nccc2c1C(=O)N(Cc1ccc(-c3cn(C)nc3C)cc1)C2 (single isomer, unassigned) [Example 275, 2-(4-(1,3-dimethyl-1H-pyrazol-4-yl)benzyl)-4-((l-hydroxybutan-2-yl)oxy)-1,2-dihydro-3H-pyrrolo[3,4-c]pyridin-3-one]
17 | 48 nM | 101% |  | O=C1c2c(cccc2O[C@@H]2CCOC[C@H]2O)CN1Cc1ccc(Cl)cc1 (single isomer, unassigned) [Example 292, 1,5-anhydro-3-O-(2-(4-chlorobenzyl)-3-oxo-2,3-dihydro-1H-isoindol-4-yl)-2-deoxy-threo-pentitol]
18 | 32 nM | 104% |  | O=C1c2c(ccnc2O[C@@H]2CCCC[C@H]2O)CN1Cc1cccc(F)c1 (single isomer, unassigned) [Example 321, 2-(3-fluorobenzyl)-4-((trans-2-hydroxycyclohexyl)oxy)-1,2-dihydro-3H-pyrrolo[3,4-c]pyridin-3-one]
19 | 20 nM | 102% |  | Cn1cc(-c2ccc(CN3Cc4cccc(OCC5CCCO5)c4C3=O)cc2)cn1 (stereo not shown) [Example 5, 2-(4-(1-methyl-1H-pyrazol-4-yl)benzyl)-7-((tetrahydrofuran-2-yl)methoxy)isoindolin-1-one]
20 | 31 nM | 90% |  | Cn1cc(-c2ccc(CN3Cc4cccc(Oc5c(F)cccc5C#N)c4C3=O)cc2)cn1 [Example 6, 3-fluoro-2-((2-(4-(1-methyl-1H-pyrazol-4-yl)benzyl)-3-oxo-2,3-dihydro-1H-isoindol-4-yl)oxy)benzonitrile]
21 | 33 nM | 99% |  | Cn1cc(-c2ccc(CN3Cc4cccc(OCCN5CCCC5)c4C3=O)cc2)cn1 [Example 8, 2-(4-(1-methyl-1H-pyrazol-4-yl)benzyl)-7-(2-(pyrrolidin-1-yl)ethoxy)isoindolin-1-one]
22 | 34 nM | 93% |  | Cn1cc(-c2ccc(CN3Cc4cccc(Oc5c(Cl)cccc5C#N)c4C3=O)cc2)cn1 [Example 9, 3-chloro-2-((2-(4-(1-methyl-1H-pyrazol-4-yl)benzyl)-3-oxo-2,3-dihydro-1H-isoindol-4-yl)oxy)benzonitrile]
23 | 54 nM | 103% |  | Cn1cc(-c2ccc(CN3Cc4cccc(Oc5c(F)cc([N+](=O)[O-])cc5Cl)c4C3=O)cc2)cn1 [Example 10, 7-(2-chloro-6-fluoro-4-nitrophenoxy)-2-(4-(1-methyl-1H-pyrazol-4-yl)benzyl)isoindolin-1-one]
